Source: US20070128217A1 (priority 2003, published 2007)

Tests used:
[1] = test system: recombinant human anti-SARS-CoV antibody 03-018; assay type: binding; set-up: Binding of antibody 03-018 to linear peptides of the N protein of SARS-CoV Urbani / Binding of antibody 03-018 to looped/cyclic peptides of the N protein of SARS-CoV Urbani: unit not given here
[2] = test system: control sera (pooled serum of ten healthy LUMC hospital workers; commercial negative donor pooled serum from the Dutch bloodbank); assay type: binding, human; set-up: Binding of Control serum LUMC to linear peptides / Binding of Control serum Blood-bank to linear peptides / Binding of Control serum LUMC to looped peptides / Binding of Control Serum Blood-Bank to Looped peptides / Binding of Control serum LUMC to linear peptides of the protein M of SARS-CoV Urbani / Binding of Control serum Blood-bank to linear peptides of the protein M of SARS-CoV Urbani / Binding of Control serum LUMC to looped peptides of the protein M of SARS-CoV Urbani / Binding of Control Serum Blood-Bank to Looped peptides of the protein M of SARS-CoV Urbani: unit not given here
[3] = test system: rabbit serum obtained by immunizing a rabbit with the SARS-CoV strain Frankfurt 1; assay type: binding; set-up: Binding of a rabbit serum to linear peptides / Binding of a rabbit serum to looped peptides / Rabbit serum linear peptides / Rabbit serum looped peptides / Binding of a rabbit serum to linear peptides of protein N of SARS-CoV Urbani (Rabbit serum linear peptides) / Binding of a rabbit serum to looped/cyclic peptides of protein N of SARS-CoV Urbani (Rabbit serum looped peptides): unit not given here
[4] = test system: antibodies in sera from SARS patients (sera 1a, 1b, 2, 6, 37, 62, London, SARS-yellow, SARS-green); assay type: binding, human; set-up: Binding of serum 6 to linear peptides of protein X1 of SARS-CoV Urbani / Binding of serum 37 to linear peptides of protein X1 of SARS-CoV Urbani / Binding of serum 6 to looped/cyclic peptide (PEPSCAN-ELISA) / Binding of serum 37 to looped/cyclic peptide (PEPSCAN-ELISA) / Binding of serum 37 to looped/cyclic peptides of protein X1 of SARS-CoV Urbani / Binding of serum 6 to linear peptides of protein X2 / Binding of serum 37 to linear peptides of protein X2 / Binding of serum 37 to looped/cyclic peptides of protein X2 of SARS-CoV Urbani / Binding of serum 6 to linear peptides of protein M of SARS-CoV Urbani / Binding of serum 37 to linear peptides of protein M of SARS-CoV Urbani / Binding of serum 6 to looped/cyclic peptides of protein M of SARS-CoV Urbani / Binding of serum 37 to looped/cyclic peptides of protein M of SARS-CoV Urbani / Binding of serum 6 to linear peptides of protein X3 of SARS-CoV Urbani / Binding of serum 37 to linear peptides of protein X3 of SARS-CoV Urbani / Binding of serum 37 to looped/cyclic peptides of protein X3 of SARS-CoV Urbani / Binding of serum 6 to linear peptides of protein X4 of SARS-CoV Urbani / Binding of serum 37 to linear peptides of protein X4 of SARS-CoV Urbani / Binding of serum 37 to looped/cyclic peptides of protein X4 of SARS-CoV Urbani / Binding of serum 6 to linear peptides of protein X5 of SARS-CoV Urbani / Binding of serum 37 to linear peptides of protein X5 of SARS-CoV Urbani / Binding of serum 37 to looped/cyclic peptides of protein X5 of SARS-CoV Urbani / Binding of serum 6 to linear peptides of protein N of SARS-CoV Urbani / Binding of serum 37 to linear peptides of protein N of SARS-CoV Urbani / Binding of serum 6 to linear peptide (PEPSCAN-ELISA) / Binding of serum 1a to looped/cyclic peptides of protein N of SARS-CoV Urbani / Binding of serum 1b to looped/cyclic peptides of protein N of SARS-CoV Urbani / Binding of serum 2 to looped/cyclic peptides of protein N of SARS-CoV Urbani / Binding of serum 6 to looped/cyclic peptides of protein N of SARS-CoV Urbani / Binding of serum 37 to looped/cyclic peptides of protein N of SARS-CoV Urbani / Binding of serum 62 to looped/cyclic peptides of protein N of SARS-CoV Urbani / Binding of serum London to looped/cyclic peptides of protein N of SARS-CoV Urbani / Binding of serum SARS-green to looped/cyclic peptides of protein N of SARS-CoV Urbani: unit not given here

QGNFGDQDLIRQGTD
Binding of antibody 03-018 to linear peptides of the N protein of SARS-CoV Urbani [1]: 0.1
Binding of antibody 03-018 to looped/cyclic peptides of the N protein of SARS-CoV Urbani [1]: 0.2
Binding of Control Serum Blood-Bank to Looped peptides [2]: 0.5
Binding of Control serum Blood-bank to linear peptides [2]: 0.6
Binding of Control serum LUMC to linear peptides [2]: 0.7
Binding of Control serum LUMC to looped peptides [2]: 0.6
Binding of a rabbit serum to linear peptides of protein N of SARS-CoV Urbani (Rabbit serum linear peptides) [3]: 0.2
Binding of a rabbit serum to looped/cyclic peptides of protein N of SARS-CoV Urbani (Rabbit serum looped peptides) [3]: 0.4
Binding of serum 1a to linear peptide (PEPSCAN-ELISA) [4]: 0.3
Binding of serum 1a to looped/cyclic peptides of protein N of SARS-CoV Urbani [4]: 0.4
Binding of serum 1b to linear peptide (PEPSCAN-ELISA) [4]: 0.2
Binding of serum 1b to looped/cyclic peptides of protein N of SARS-CoV Urbani [4]: 0.3
Binding of serum 2 to linear peptide (PEPSCAN-ELISA) [4]: 0.2
Binding of serum 2 to looped/cyclic peptides of protein N of SARS-CoV Urbani [4]: 0.3
Binding of serum 6 to linear peptide (PEPSCAN-ELISA) [4]: 0.2
Binding of serum 6 to looped/cyclic peptides of protein N of SARS-CoV Urbani [4]: 0.2
Binding of serum 37 to linear peptide (PEPSCAN-ELISA) [4]: 0.8
Binding of serum 37 to looped/cyclic peptides of protein N of SARS-CoV Urbani [4]: 0.6
Binding of serum 62 to linear peptide (PEPSCAN-ELISA) [4]: 0.8
Binding of serum 62 to looped/cyclic peptides of protein N of SARS-CoV Urbani [4]: 0.5
Binding of serum London to linear peptide (PEPSCAN-ELISA) [4]: 0.5
Binding of serum London to looped/cyclic peptides of protein N of SARS-CoV Urbani [4]: 0.4
Binding of serum SARS-green to linear peptide (PEPSCAN-ELISA) [4]: 0.6
Binding of serum SARS-green to looped/cyclic peptides of protein N of SARS-CoV Urbani [4]: 0.7
Binding of serum SARS-yellow to linear peptide (PEPSCAN-ELISA) [4]: 0.8
Binding of serum SARS-yellow to looped/cyclic peptides of protein N of SARS-CoV Urbani [4]: 0.6

TEPKKDKKKKTDEAQ
Binding of antibody 03-018 to linear peptides of the N protein of SARS-CoV Urbani [1]: 0.1
Binding of antibody 03-018 to looped/cyclic peptides of the N protein of SARS-CoV Urbani [1]: 0.2
Control Serum Blood-Bank Looped peptides [2]: 0.5
Control serum Blood-bank linear peptides [2]: 0.7
Control serum LUMC linear peptides [2]: 0.8
Control serum LUMC looped peptides [2]: 0.4
Binding of a rabbit serum to linear peptides of protein N of SARS-CoV Urbani (Rabbit serum linear peptides) [3]: 0.2
Binding of a rabbit serum to looped/cyclic peptides of protein N of SARS-CoV Urbani (Rabbit serum looped peptides) [3]: 0.3
Binding of serum 1a to linear peptides of protein N of SARS-CoV Urbani [4]: 0.2
Binding of serum 1a to looped/cyclic peptides of protein N of SARS-CoV Urbani [4]: 0.2
Binding of serum 1b to linear peptides of protein N of SARS-CoV Urbani [4]: 0.1
Binding of serum 1b to looped/cyclic peptides of protein N of SARS-CoV Urbani [4]: 0.1
Binding of serum 2 to linear peptides of protein N of SARS-CoV Urbani [4]: 2.5
Binding of serum 2 to looped/cyclic peptides of protein N of SARS-CoV Urbani [4]: 1.9
Binding of serum 6 to linear peptides of protein N of SARS-CoV Urbani [4]: 0.2
Binding of serum 6 to looped/cyclic peptides of protein N of SARS-CoV Urbani [4]: 0.1
Binding of serum 37 to linear peptides of protein N of SARS-CoV Urbani [4]: 0.7
Binding of serum 37 to looped/cyclic peptides of protein N of SARS-CoV Urbani [4]: 0.4
Binding of serum 62 to linear peptides of protein N of SARS-CoV Urbani [4]: 0.7
Binding of serum 62 to looped/cyclic peptides of protein N of SARS-CoV Urbani [4]: 0.3
Binding of serum London to linear peptides of protein N of SARS-CoV Urbani [4]: 0.6
Binding of serum London to looped/cyclic peptides of protein N of SARS-CoV Urbani [4]: 0.3
Binding of serum SARS-green to linear peptides of protein N of SARS-CoV Urbani [4]: 0.5
Binding of serum SARS-green to looped/cyclic peptides of protein N of SARS-CoV Urbani [4]: 0.0
Binding of serum SARS-yellow to linear peptides of protein N of SARS-CoV Urbani [4]: 0.6
Binding of serum SARS-yellow to looped/cyclic peptides of protein N of SARS-CoV Urbani [4]: 0.2

GLPNNTASWFTALTQ
Binding of antibody 03-018 to linear peptides of the N protein of SARS-CoV Urbani [1]: 0.1
Binding of antibody 03-018 to looped/cyclic peptides of the N protein of SARS-CoV Urbani [1]: 0.3
Binding of Control Serum Blood-Bank to Looped peptides [2]: 0.8
Binding of Control serum Blood-bank to linear peptides [2]: 0.7
Binding of Control serum LUMC to linear peptides [2]: 0.6
Binding of Control serum LUMC to looped peptides [2]: 0.7
Binding of a rabbit serum to linear peptides of protein N of SARS-CoV Urbani (Rabbit serum linear peptides) [3]: 0.1
Binding of a rabbit serum to looped/cyclic peptides of protein N of SARS-CoV Urbani (Rabbit serum looped peptides) [3]: 0.4
Binding of serum 1a to linear peptides of protein N of SARS-CoV Urbani [4]: 0.2
Binding of serum 1a to looped/cyclic peptides of protein N of SARS-CoV Urbani [4]: 0.4
Binding of serum 1b to linear peptides of protein N of SARS-CoV Urbani [4]: 0.1
Binding of serum 1b to looped/cyclic peptides of protein N of SARS-CoV Urbani [4]: 0.2
Binding of serum 2 to linear peptides of protein N of SARS-CoV Urbani [4]: 0.2
Binding of serum 2 to looped/cyclic peptides of protein N of SARS-CoV Urbani [4]: 0.4
Binding of serum 6 to linear peptides of protein N of SARS-CoV Urbani [4]: 0.1
Binding of serum 6 to looped/cyclic peptides of protein N of SARS-CoV Urbani [4]: 0.3
Binding of serum 37 to linear peptides of protein N of SARS-CoV Urbani [4]: 0.7
Binding of serum 37 to looped/cyclic peptides of protein N of SARS-CoV Urbani [4]: 0.7
Binding of serum 62 to linear peptides of protein N of SARS-CoV Urbani [4]: 0.6
Binding of serum 62 to looped/cyclic peptides of protein N of SARS-CoV Urbani [4]: 0.7
Binding of serum London to linear peptides of protein N of SARS-CoV Urbani [4]: 0.4
Binding of serum London to looped/cyclic peptides of protein N of SARS-CoV Urbani [4]: 0.4
Binding of serum SARS-green to linear peptides of protein N of SARS-CoV Urbani [4]: 0.4
Binding of serum SARS-green to looped/cyclic peptides of protein N of SARS-CoV Urbani [4]: 0.6
Binding of serum SARS-yellow to linear peptides of protein N of SARS-CoV Urbani [4]: 0.4
Binding of serum SARS-yellow to looped/cyclic peptides of protein N of SARS-CoV Urbani [4]: 0.5

SSSRSRGNSRNSTPG
Binding of antibody 03-018 to linear peptides of the N protein of SARS-CoV Urbani [1]: 0.1
Binding of antibody 03-018 to looped/cyclic peptides of the N protein of SARS-CoV Urbani [1]: 0.2
Binding of Control Serum Blood-Bank to Looped peptides [2]: 0.5
Binding of Control serum Blood-bank to linear peptides [2]: 0.7
Binding of Control serum LUMC to linear peptides [2]: 0.6
Binding of Control serum LUMC to looped peptides [2]: 0.5
Binding of a rabbit serum to linear peptides of protein N of SARS-CoV Urbani (Rabbit serum linear peptides) [3]: 0.1
Binding of a rabbit serum to looped/cyclic peptides of protein N of SARS-CoV Urbani (Rabbit serum looped peptides) [3]: 0.4
Binding of serum 1a to linear peptide (PEPSCAN-ELISA) [4]: 0.4
Binding of serum 1a to looped/cyclic peptides of protein N of SARS-CoV Urbani [4]: 0.2
Binding of serum 1b to linear peptide (PEPSCAN-ELISA) [4]: 0.2
Binding of serum 1b to looped/cyclic peptides of protein N of SARS-CoV Urbani [4]: 0.1
Binding of serum 2 to linear peptide (PEPSCAN-ELISA) [4]: 0.2
Binding of serum 2 to looped/cyclic peptides of protein N of SARS-CoV Urbani [4]: 0.3
Binding of serum 6 to linear peptide (PEPSCAN-ELISA) [4]: 0.1
Binding of serum 6 to looped/cyclic peptides of protein N of SARS-CoV Urbani [4]: 0.2
Binding of serum 37 to linear peptide (PEPSCAN-ELISA) [4]: 0.5
Binding of serum 37 to looped/cyclic peptides of protein N of SARS-CoV Urbani [4]: 0.4
Binding of serum 62 to linear peptide (PEPSCAN-ELISA) [4]: 0.5
Binding of serum 62 to looped/cyclic peptides of protein N of SARS-CoV Urbani [4]: 0.3
Binding of serum London to linear peptide (PEPSCAN-ELISA) [4]: 0.5
Binding of serum London to looped/cyclic peptides of protein N of SARS-CoV Urbani [4]: 0.3
Binding of serum SARS-green to linear peptide (PEPSCAN-ELISA) [4]: 0.2
Binding of serum SARS-green to looped/cyclic peptides of protein N of SARS-CoV Urbani [4]: 0.1
Binding of serum SARS-yellow to linear peptide (PEPSCAN-ELISA) [4]: 0.6
Binding of serum SARS-yellow to looped/cyclic peptides of protein N of SARS-CoV Urbani [4]: 0.1
